From patent EP3449923A1, “COMBINATION OF BEN[…]-CANCER AGENT AND A SECOND ANTI-CANCER AGENT” (MEI Pharma, Inc., priority 2007, dated 2008)

System: HCT 116 (colon)
Test: Human xenograft model, tumor growth inhibition
Format: in vivo, female athymic nude mice
Conditions: A8 50 mg/kg po qd x 14 + vehicle (saline) iv D1,8,15
Method: To assess in vivo antitumor activity in human xenograft models, female athymic nude mice, 12 to 14 weeks of age, were implanted subcutaneously in the flank with human cancer cells. When the tumors reached approximately 100 mm^3 in size, the mice were pair-matched into various treatment groups. For oral administration, compounds were dissolved in a mixture of 0.5% methylcellulose and 0.1% Tween 80 and administered by gavage to the tumor-bearing mice. For i.v.andi.p..administration, compounds were dissolved in 0.9% NaCI and for the i.v. administration, the compound was administered via the tail vein.
Percent tumor growth inhibition (%TGI) was calculated as %TGI = (Cday a−Tday a)/(Cday a−Cday 1) × 100 [formula]
Where C is the median tumor volume of the control group, T is the median tumor volume of the treatment group, and day a is the day of assessment.
It is evident that the combination of a benzimidazole based anti-cancer agent such as Compound (A8) with the different anti-cancer agents enhanced the anti-tumor effect as compared to administering either of the drug on its own. Table 5: Examples of combination of Compound (A8) and anti-cancer agents in in vivo cancer models

## CCCCc1nc2cc(/C=C/C(=O)NO)ccc2n1CCN(CC)CC [Compound A8, 3-[2-Butyl-1-(2-diethylamino-ethyl)-1H-benzimidazol-5-yl]-N-hydroxy-acrylamide]
  %TGI at Day 15: 64%
